# From patent US11511054B2, “Use of antistatic materials in the airway for thermal aerosol condensation process” (Alexza Pharmaceuticals, Inc., priority 2015, dated 2022)
# What was measured:
# [1] = Net charge measurement of thermal condensation aerosol (aerosol electrometer, Staccato single dose); type: physicochemical; conditions: for Total net charge of aerosol particles (in words): standard housing
# [2] = Airway deposition and aerosol charges of normal, metallized and Permastat Plus airways (Example 40); type: physicochemical; conditions: 28.3 LPM
# Excerpt: Purpose • To compare aerosol charge and airway deposition of various airways: normal airway, Metallizedairway(SS*/Cu/Cu/SS), and Permastat Plus airway.
# [3] = Aerosol charge testing with heat packages, screening foils and funnels (Examples 2-3, 12); conditions: for Aerosol charge relative to Alprazolam: Example 2, aerosol electrometer
# [4] = Total net charge vs. airway housing deposition, standard vs anti-static polycarbonate housing; conditions: for Net Charge: mean ± SD, N-4
# Procedure: Alprazolam device versions were tested in this part of the study. The first version (used in Part 1) used an airway housing made of polycarbonate with a surface resistivity of—1×10 18 0/sq. The second version used an airway housing made of a lower resistivity polycarbonate (−1×1011 0/sq) to provide charge dissipation.
# [5] = Airway deposition and aerosol charges for Permastat, Permastat Plus and standard airway material (Example 38); conditions: 1 mg, 28.3 LPM, mean of 4 devices
# Excerpt: Purpose: • To find out the aerosol charge generated from Permastat and Permastat Plus airways and to compare that to normal airway (control)
# Materials/Equipment • Standard airway material: makrolon polycarbonate • Permastat: surface resistivity ˜1E11 ohm/sq • Permastat Plus: surface resistivity ˜1E9 ohm/sq • Drug: alprazolam
# [6] = no applied potential to airway housing, mean ± SD
compound,measurement,setting,value
Cc1nnc2n1-c1ccc(Cl)cc1C(c1ccccc1)=NC2 [Alprazolam],Net Charge,[1]; [6],−252 ± 59 pC/mg
same,Total net charge of aerosol particles (in words),[1],relatively large net negative charge
same,Total net charge of aerosol particles (in words),[1]; listed as ALP,net negatively charged
same,Total net charge of aerosol particles (in words),[1]; listed as alprazolam,substantial
same,Ave Aerosol Charge,"[2]; Metallized airway, ESD gun 16 kV+",−111.63 pC
same,Ave Aerosol Charge,"[2]; Metallized airway, no ESD gun",−181.57 pC
same,Ave Aerosol Charge,"[2]; Normal airway, ESD gun 16 kV+",−220.405 pC
same,Ave Aerosol Charge,"[2]; Normal airway, no ESD gun",−220.645 pC
same,Ave Aerosol Charge,"[2]; Permastat Plus airway, ESD gun 16 kV+",−21.895 pC
same,Ave Aerosol Charge,"[2]; Permastat Plus airway, no ESD gun",−16.57 pC
same,Aerosol charge (in words),[3]; Staccato heat packages with Staticide,small and negative
same,Aerosol charge (in words),[3]; Staccato heat packages without Staticide,large and negative
same,Aerosol charge polarity,[3]; partially Staticide-coated airway,positive polarity
same,Net Charge,[4]; anti-static polycarbonate airway housing,−2.2 ± 1
same,"Total net charge, anti-static housing relative to standard housing (fold less)",[4]; anti-static vs standard housing,100 fold
same,Net Charge,[4]; standard polycarbonate airway housing,−279 ± 45
same,Mean charge/mass,[5]; Permastat Plus airway,−2.2 pC/mg
same,Mean charge/mass,[5]; Permastat airway,−46.2 pC/mg
same,Mean charge/mass,[5]; control (normal) airway,−279.2 pC/mg
CCCCNc1cc(C(=O)O)cc(S(N)(=O)=O)c1Oc1ccccc1 [Bumetanide],Aerosol charge relative to Alprazolam,[3],about one order of magnitude lower
CN1C(=O)CC(=O)N(c2ccccc2)c2cc(Cl)ccc21 [Clobazam],Net Charge,[1]; [6],0 ± 0 pC/mg
CN1C(=O)CN=C(c2ccccc2)c2cc(Cl)ccc21 [Diazepam],Net Charge,[1]; [6],−1 ± 1 pC/mg
Clc1ccc2c(c1)C(c1ccccc1)=NCc1nncn1-2 [Estazolam],Net Charge,[1]; [6],−202 ± 3 pC/mg
same,Total net charge of aerosol particles (in words),[1],substantial
CN1CCN(CCCN2c3ccccc3Sc3ccc(Cl)cc32)CC1 [Prochlorperazine],Net Charge,[1]; [6],27 ± 3 pC/mg
same,Aerosol charge relative to Alprazolam,[3],about one order of magnitude lower
Cc1nnc2n1-c1ccc(Cl)cc1C(c1ccccc1Cl)=NC2 [Triazolam],Net Charge,[1]; [6],−158 ± 13 pC/mg
same,Total net charge of aerosol particles (in words),[1],substantial
CCN(C(C)=O)c1cccc(-c2ccnc3c(C#N)cnn23)c1 [Zaleplon],Net Charge,[1]; +16 kV applied to airway housing,−15 ± 6 pC/mg
same,Net Charge,[1]; [6],7 ± 1 pC/mg
same,Net Charge,[1]; −16 kV applied to airway housing,2 ± 8 pC/mg
same,Degree of aerosol charge (in words),[3]; Example 3,low degree of charge
